Entries after “also recorded” stand apart in the source; their conditions may differ. Like-named read-outs stand apart in the source and are kept apart here. No end group written: not given here.
T1: SPP (Homo sapiens, UniProt Q8TCT9)
T1 sequence (Q8TCT9 1-377): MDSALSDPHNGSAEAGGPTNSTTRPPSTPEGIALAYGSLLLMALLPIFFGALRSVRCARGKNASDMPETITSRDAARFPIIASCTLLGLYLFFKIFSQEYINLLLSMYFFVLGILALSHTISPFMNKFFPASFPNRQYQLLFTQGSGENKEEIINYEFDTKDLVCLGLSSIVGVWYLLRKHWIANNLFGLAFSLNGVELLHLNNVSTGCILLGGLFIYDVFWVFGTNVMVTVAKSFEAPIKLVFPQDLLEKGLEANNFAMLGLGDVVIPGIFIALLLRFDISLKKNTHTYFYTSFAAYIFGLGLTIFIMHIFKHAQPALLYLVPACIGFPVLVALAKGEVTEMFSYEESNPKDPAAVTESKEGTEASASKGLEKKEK

T2: GST-5ABC (GST fused to residues 720-761 of human erythrocyte band 3) (human, UniProt P02730 720-761)
T2 construct: also called soluble GST-5ABC; GST-5ABC conjugated to beads
T2 chain: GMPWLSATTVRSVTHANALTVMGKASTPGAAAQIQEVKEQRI


Key:
[1] = test system: incomplete version of PfSPP lacking the 6 amino acids; settings: cited from earlier work
[2] = test system: P. falciparum merozoite invasion of human erythrocytes; assay: RBC invasion by synchronized schizonts with SPP inhibitors, new rings counted; assay type: cell-based; settings: increasing concentrations, 20 h, versus DMSO
From the text: To investigate the role of PfSPP in parasite invasion, a chemical approach was adopted by employing three synthetic inhibitors of mammalian membrane aspartyl proteases. The inhibitor (Z-LL)2-ketone (Calbiochem/EMD Biosciences, Gibbstown, N.J.) is specific for mammalian SPP, whereas the L-685,458 and DAPT inhibitors (both were gift of Dr. S. Sisodia of the University of Chicago) are known to be specific for the γ-secretase/Presenilin-1 complex (FIG. 8A). […] Herein, human erythrocytes with highly synchronized P. falciparum schizonts were incubated in the presence of increasing concentrations of (Z-LL)2-ketone, L-685,458, and DAPT. After 20 h of incubation, the rings were counted from the inhibitor and DMSO treated samples.

P. falciparum 7G8 = assay: Parasite growth by [3H]-hypoxanthine incorporation; assay type: cell-based; settings: 7G8 strain, chloroquine-resistant
Protocol: (§1) Since the primary structure of PfSPP is highly conserved, the effect of these inhibitors on the growth of other P. falciparum strains was also tested. The parasite strains tested included two chloroquine-resistant P. falciparum strains (7G8, Dd2), one chloroquine-sensitive strain (HB3), and one mildly chloroquine-resistant strain (FCR3). Parasite growth was evaluated in these four strains by measuring [^3H]-hypoxanthine incorporation starting at 24 h post-invasion. Both (Z-LL)2-ketone and L-685,458 inhibited parasite growth in all 4 parasite strains with the IC50 values similar to 3D7 strain, while DAPT had no effect on any strain (Table 2).

P. falciparum Dd2 = assay: Parasite growth by [3H]-hypoxanthine incorporation; assay type: cell-based; settings: Dd2 strain, chloroquine-resistant
Protocol: as §1

P. falciparum FCR3 = assay: Parasite growth by [3H]-hypoxanthine incorporation; assay type: cell-based; settings: FCR3 strain, mildly chloroquine-resistant
Protocol: as §1

P. falciparum HB3 = assay: Parasite growth by [3H]-hypoxanthine incorporation; assay type: cell-based; settings: HB3 strain, chloroquine-sensitive
Protocol: as §1

[3] = target: T3, γ-secretase/Presenilin-1 complex (Homo sapiens, UniProt P49768); settings: (Z-LL)2-ketone up to 100 μM; cited from earlier work
T3 construct: host or cells: live mammalian cells

P. falciparum 3D7 = assay: Parasite growth in human erythrocytes from synchronized ring stage; assay type: cell-based; settings: for inhibition of parasite replication (in words): 10 μM, after one cycle of asexual multiplication; for effect on parasite growth in erythrocytes (in words): ring stage parasites, 0.2% DMSO
From the text: FIG. 9B depicts a graph indicating inhibition of parasite growth as a result of (Z-LL)2-ketone (▪), L-685,458 (•), and DAPT (♦) treatment. […] FIG. 9C is a schematic diagraph showing disruption of the P. falciparum (3D7 strain) PfSPP gene. PfSPP5′ and PfSPP3′ represent 5′ translated region (616 bp) and 3′ translated region (711 bp) of the PfSPP gene, respectively. Dashed lines represent bacterial vector sequences. Bold lines represent untranslated regions of the target PfSPP gene.
The P. falciparum strain 3D7 (obtained from MR4) was maintained in continuous culture in a 5% suspension of fresh type O+ human erythrocytes in RPMI 1640 at 37° C. under 5% CO2, 5% O2, and 90% N2 by the method of Trager and Jensen (Trager et al., 1976, Science 193:673-5). Ring-stage parasites were synchronized by using 5% sorbitol treatment and late-stage parasites were enriched to >95% by centrifugation in 63% (v/v) Percoll as described (Goel et al., 2003, Proc Natl Acad Sci USA 100:5164-5169). The parasite protein extract was prepared by solubilizing an enriched fraction of mature parasites with an extraction buffer (50 mM Tris-HCl, pH 8.0, 150 mM NaCl, 5 mM EDTA, 5 mM EGTA, 0.5% Triton X-100, 0.5% BSA) supplemented with 2 μg/ml Aprotinin, 1 μg/ml of Leupeptin, Pepstatin A, Bestatin, 10 mM PMSF, and a cocktail of protease inhibitors (Roche, Indianapolis, Ind.). The mixture was kept on ice for 1 h and centrifuged at 12,000 g for 20 min at 4° C. The supernatant was stored at −80° C. in aliquots and used in the antibody characterization and binding assays.
The effects of the three inhibitors on malaria parasite growth in human erythrocytes were examined Synchronized ring stage parasites were incubated with inhibitors in the presence of 0.2% DMSO. […] The precipitous decline in parasitemia presumably originated from inhibition of late rings or early trophozoites, as pyknotic parasites were observed after 24-48 h of culture in the presence of (Z-LL)2-ketone and L-685,458 (FIG. 4). Destruction of the inhibitor-treated parasites was irreversible, as no progression to the second asexual cycle was observed. In contrast, DAPT had little or no effect on parasite growth as compared to the DMSO-treated control (FIG. 9A).

SPP = target: T1, SPP; settings: DAPT at 100 μM; cited from earlier work
PfSPP = assay: RBC-binding assay in suspension with native PfSPP from culture supernatant; parameters: species or system P. falciparum; settings: soluble protein 40 μM, quantified by densitometry of immunoblot
Protocol: To carry out a RBC-binding assay in solution using native PfSPP, a spent culture supernatant of P. falciparum containing native PfSPP was prepared as follows. Trophozoites enriched from a 5% sorbitol-synchronized P. falciparum culture were allowed to mature for 16 h to form schizonts and merozoites. The parasites were left in the culture flask to lyse and the proteins were released into the culture supernatant. Aliquots of the culture were centrifuged at either 12,000 g for 20 min or 40,000 g for 15 min at 4° C. The culture supernatant and pellet were analyzed by immunoblot analysis using anti-PfSPP pAbs. The culture supernatant prepared at 12,000 g was stored at −80° C. in aliquots and used in subsequent RBC binding assays. In these assays, a 500 μl sample of P. falciparum culture supernatant was added to untreated, trypsin-treated, chymotrypsin-treated, or neuraminidase-treated intact human RBCs (50 μl packed volume) for 1 h at room temperature. The cells were centrifuged at 12,000 g for 30 s through a layer of silicone oil (500 μl). Proteins bound to RBCs were eluted by incubating the RBCs in 1.5 M NaCl (20 μl) for 30 min at room temperature. Salt-eluted proteins were analyzed by SDS-PAGE followed by immunoblotting using anti-PfSPP Abs. The pretreatment of intact RBCs with enzymes was carried out as described (Goel et al., 2003, Proc Natl Acad Sci USA 100:5164-5169). […]

[4] = target: T2, GST-5ABC (GST fused to residues 720-761 …); assay: bead pull-down (GST-5ABC on GSH beads), immunoblot with anti-PfSPP/ER pAbs
[5] = 3D7 strain, read-out: IC50 parasite growth
[6] = FIG. 9B legend, read-out: IC50 for live parasites

Molecule | inhibition of in vitro enzyme activity (in words) [1] | effect on parasite/merozoite invasion (in words) [2] | IC50 (P. falciparum 7G8) | IC50 (P. falciparum Dd2) | IC50 (P. falciparum FCR3) | IC50 (P. falciparum HB3) | inhibition of γ-secretase/Presenilin-1 activity (in words) [3] | inhibition of parasite replication (in words) (P. falciparum 3D7) | IC50 (P. falciparum 3D7; [5]) | IC50 (P. falciparum 3D7; [6]) | effect on parasite growth in erythrocytes (in words) (P. falciparum 3D7) | effect on SPP activity (in words) (SPP) | decrease of binding of PfSPP to RBCs (PfSPP) | binding result [4]
CC(C)C[C@H](NC(=O)OCc1ccccc1)C(=O)N[C@@H](CC(C)C)C(=O)NCC(=O)CNC(=O)[C@H](CC(C)C)NC(=O)[C@H](CC(C)C)NC(=O)OCc1ccccc1 [(Z-LL)2-ketone] | inhibited | efficiently inhibited; also recorded: significant decrease in the number of new rings | 1120 ± 50 nM | 1080 ± 70 nM | 1230 ± 40 nM | 1060 ± 50 nM | does not inhibit | complete inhibition | 985 nM | 985 nM | significant inhibition |  |  | 
C[C@H](NC(=O)Cc1cc(F)cc(F)c1)C(=O)N[C@H](C(=O)OC(C)(C)C)c1ccccc1 [DAPT] |  | minimal effect; also recorded: no effect | > 10000 nM | > 10000 nM | > 10000 nM | > 10000 nM |  |  |  |  | no effect | no effect |  | 
CC(C)C[C@H](NC(=O)[C@H](Cc1ccccc1)C[C@@H](O)[C@H](Cc1ccccc1)NC(=O)OC(C)(C)C)C(=O)N[C@@H](Cc1ccccc1)C(N)=O [L-685,458] |  | efficiently inhibited; also recorded: significant decrease in the number of new rings | 210 ± 40 nM | 180 ± 30 nM | 230 ± 30 nM | 190 ± 20 nM | inhibited | complete inhibition | 174 nM | 174 nM | significant inhibition | inhibited |  | 
C[C@H](NC(=O)[C@@H](O)c1cc(F)cc(F)c1)C(=O)N[C@@H]1C(=O)N(C)c2ccccc2-c2ccccc21 [LY411,575] | inhibited |  |  |  |  |  |  |  |  |  |  |  |  | 
GST-5ABC: GST fusion protein of 5ABC peptide, residues 720-761 of human band 3 (SEQ ID NO:7) (GMPWLSATTVRSVTHANALTVMGKASTPGAAAQIQEVKEQRI; also: GST fusion; UniProt P02730 720-761, looked up, fragment) |  |  |  |  |  |  |  |  |  |  |  |  | 94% | 
native Plasmodium falciparum signal peptide peptidase (PfSPP) (enzyme, also called native PfSPP; native P. falciparum PfSPP) MNLLKLIGKNKKMKNENMGNSIFYYSCYVIIVLTIILSKFVVIPLMAQMFLYTFITIYIGSHDSLKQLEIDDKTKKSDNITAYDAMMFPVIGSAALLTLYFAYKFLDPFYVNLLLTLYLTLAGVFSLQGVFTTILEPVFPNFFKKDEYVKTFKLPNFIYKEPIVFNTNKGEIVCLILSFAIGLRWIFYKDFITHNVLAVSFCFQAISLVILSNFLIGFLLLSGLFVYDIFWVFGNDVMVTVAKSFEAPVKLLFPVSSDPVHYSMLGLGDIIIPGILMSLCLRFDYYLFKNNIHKGNLKKMFNDISIHESFKKYYFYTIIIFYELGLVVTYCMLFYFEHPQPALLYLVPACILAILACSICKREFKLMIKYQEITDKSNTVDDASKNKKKDKEEIPKIQETPVSNAKKRITNK |  |  |  |  |  |  |  |  |  |  |  |  |  | binds

Reference: patent publication US20110171225A1, “Novel Plasmodium Falciparum Gene Encoding Signal Peptide Peptidase and Method of Using Inhibitors Thereof for Inhibiting Malarial Infection” (The Board of Trustees of the University of Illinois, priority 2008, published 2011)
